Laboratory results from PubChem BioAssay AID330 (DTP/NCI, 2004).
Several values for one entry are separate records, joined by “and”; a condition that tells them apart may be missing. Identical values can stand only once. Inconclusive results and toxic doses are left out.

Tested on: P388 leukemia ip, CD2F1 mice, survival T/C
Test: NCI In Vivo Anticancer Drug Screen. Data for tumor model P388 Leukemia (intraperitoneal) in CD2F1 (CDF1) mice
Details: endpoint: median survival time, higher = longer survival
Procedure, shortened: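 Mice carrying the transplanted tumor received test compound or vehicle. Survival was recorded in each group, and the value is the treated-group measurement divided by that of the vehicle-treated control group.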

[1] = dose: 50.0 mg/kg/injection, schedule: Q01DX005 (ip), vehicle: saline with Tween-80
[2] = dose: 100.0 mg/kg/injection, schedule: Q01DX005 (ip), vehicle: saline with Tween-80
[3] = dose: 50.0 mg/kg/injection, schedule: Q01DX009 (ip), vehicle: Klucel (hydroxypropylcellulose) (HPC)
[4] = dose: 100.0 mg/kg/injection, schedule: Q01DX009 (ip), vehicle: Klucel (hydroxypropylcellulose) (HPC)
[5] = dose: 200.0 mg/kg/injection, schedule: Q01DX009 (ip), vehicle: Klucel (hydroxypropylcellulose) (HPC)
[6] = dose: 50.0 mg/kg/injection, schedule: Q01DX009 (ip), vehicle: saline
[7] = dose: 100.0 mg/kg/injection, schedule: Q01DX009 (ip), vehicle: saline
[8] = dose: 60.0 mg/kg/injection, schedule: Q01DX005 (ip), vehicle: Klucel (hydroxypropylcellulose) (HPC)
[9] = dose: 60.0 mg/kg/injection, schedule: Q01DX005 (ip), vehicle: saline with Tween-80
[10] = dose: 120.0 mg/kg/injection, schedule: Q01DX005 (ip), vehicle: Klucel (hydroxypropylcellulose) (HPC)
[11] = dose: 120.0 mg/kg/injection, schedule: Q01DX005 (ip), vehicle: saline with Tween-80
[12] = dose: 240.0 mg/kg/injection, schedule: Q01DX005 (ip), vehicle: saline with Tween-80
[13] = dose: 30.0 mg/kg/injection, schedule: Q01DX005 (ip), vehicle: Klucel (hydroxypropylcellulose) (HPC)
[14] = dose: 50.0 mg/kg/injection, schedule: Q01DX009 (ip), vehicle: saline with Tween-80
[15] = dose: 100.0 mg/kg/injection, schedule: Q01DX009 (ip), vehicle: saline with Tween-80

SMILES: COC(=O)c1ccc(C(=O)OC)c2nc3cc([N+](=O)[O-])ccc3nc12
- T/C (dose: 60.0 mg/kg/injection, schedule: Q01DX005 (ip), vehicle: suspension in saline): 100 % of control
- T/C (dose: 120.0 mg/kg/injection, schedule: Q01DX005 (ip), vehicle: suspension in saline): 102 % of control

SMILES: CN(Cc1cccc2ccccc12)Cc1cccc2ccccc12
- T/C [1]: 86 % of control
- T/C [2]: 89 % of control

SMILES: Cc1cc(C)c(Cn2c(=O)[nH][nH]c2=O)cc1Cn1c(=O)[nH][nH]c1=O
- T/C [3]: 107 % of control
- T/C [4]: 100 % of control
- T/C [5]: 100 % of control

SMILES: CCOCCC(=NC(C)(C)C)Nc1ccccc1C
- T/C [6]: 107 % of control
- T/C [7]: 115 % of control

SMILES: Cc1nc(CO)cc([N+](=O)[O-])c1C
- T/C (dose: 12.5 mg/kg/injection, schedule: Q01DX009 (ip), vehicle: distilled water + Tween-80): 101 % of control
- T/C (dose: 25.0 mg/kg/injection, schedule: Q01DX009 (ip), vehicle: distilled water + Tween-80): 101 % of control
- T/C (dose: 50.0 mg/kg/injection, schedule: Q01DX009 (ip), vehicle: distilled water + Tween-80): 100 % of control
- T/C (dose: 100.0 mg/kg/injection, schedule: Q01DX009 (ip), vehicle: distilled water + Tween-80): 101 % of control
- T/C (dose: 200.0 mg/kg/injection, schedule: Q01DX009 (ip), vehicle: distilled water + Tween-80): 104 % of control

SMILES: CS/N=C(/c1ccc(/C(=N/SC)N(C)C)cc1)N(C)C
- T/C [8]: 106 % of control
- T/C [9]: 100 % of control
- T/C [10]: 106 % of control
- T/C [11]: 102 % of control
- T/C [12]: 99 % of control

SMILES: O=C(c1ccccc1)c1cc(Cl)ccc1NCC(O)COc1ccc(Cl)cc1 (stereo unspecified)
- T/C [9]: 93 % of control
- T/C [11]: 89 % of control
- T/C [12]: 88 % of control

SMILES: COc1ccc(/C(N)=N/OCc2ccc(C#N)cc2)cc1
- T/C [3]: 96 % of control
- T/C [4]: 93 % of control
- T/C [5]: 95 % of control

SMILES: COc1nc(NC2OC(CO)C(O)C(O)C2O)c(Cl)c(=O)n1C (stereo unspecified)
- T/C [9]: 94 % of control
- T/C [11]: 93 % of control
- T/C [12]: 97 % of control

SMILES: CNC(=S)SC1=NS(=O)(=O)c2ccccc2N1
- T/C [13]: 111 % of control
- T/C [8]: 99 % of control and 110 % of control
- T/C [10]: 116 % of control and 117 % of control

SMILES: O=S1(=O)CS(=O)(=O)OCCCCO1
- T/C (dose: 12.5 mg/kg/injection, schedule: Q01DX005 (ip), vehicle: saline): 176 % of control
- T/C (dose: 25.0 mg/kg/injection, schedule: Q01DX005 (ip), vehicle: saline): 167 % of control and 199 % of control
- T/C (dose: 50.0 mg/kg/injection, schedule: Q01DX005 (ip), vehicle: saline): 87 % of control

SMILES: O=C(NCCO)c1ccc(O)cc1O
- T/C [8]: 116 % of control
- T/C [10]: 120 % of control
- T/C (dose: 240.0 mg/kg/injection, schedule: Q01DX005 (ip), vehicle: Klucel (hydroxypropylcellulose) (HPC)): 120 % of control

SMILES: CCCCCCC(=O)/C=C/c1ccc(OC(=O)c2ccc(C#N)cc2)cc1
- T/C [14]: 100 % of control
- T/C [15]: 101 % of control
- T/C (dose: 200.0 mg/kg/injection, schedule: Q01DX009 (ip), vehicle: saline with Tween-80): 95 % of control

SMILES: O=C1c2cccc3cccc(c23)C(=O)N1CCc1ccccn1
- T/C [1]: 107 % of control
- T/C [2]: 98 % of control

SMILES: OCC12COCN1COC2
- T/C [6]: 106 % of control and 92 % of control
- T/C [7]: 106 % of control and 111 % of control
- T/C (dose: 200.0 mg/kg/injection, schedule: Q01DX009 (ip), vehicle: saline): 108 % of control and 118 % of control
- T/C (dose: 400.0 mg/kg/injection, schedule: Q01DX009 (ip), vehicle: saline): 123 % of control

SMILES: CN(/N=C(C#N)/C(N)=N/N)c1ccccc1
- T/C (dose: 100.0 mg/kg/injection, schedule: Q04DX002 (ip), vehicle: saline with Tween-80): 96 % of control
- T/C (dose: 200.0 mg/kg/injection, schedule: Q04DX002 (ip), vehicle: saline with Tween-80): 96 % of control

SMILES: Cc1c2ccnc(C(N)=O)c2c(C)c2c1[nH]c1ccccc12
- T/C (dose: 6.25 mg/kg/injection, schedule: Q04DX002 (ip), vehicle: distilled water + Tween-80): 99 % of control
- T/C (dose: 6.25 mg/kg/injection, schedule: Q04DX003 (ip), vehicle: distilled water + Tween-80): 111 % of control
- T/C (dose: 12.5 mg/kg/injection, schedule: Q04DX002 (ip), vehicle: distilled water + Tween-80): 99 % of control
- T/C (dose: 12.5 mg/kg/injection, schedule: Q04DX003 (ip), vehicle: distilled water + Tween-80): 112 % of control
- T/C (dose: 25.0 mg/kg/injection, schedule: Q04DX002 (ip), vehicle: distilled water + Tween-80): 99 % of control
- T/C (dose: 25.0 mg/kg/injection, schedule: Q04DX003 (ip), vehicle: distilled water + Tween-80): 112 % of control
- T/C (dose: 50.0 mg/kg/injection, schedule: Q04DX002 (ip), vehicle: distilled water + Tween-80): 104 % of control
- T/C (dose: 50.0 mg/kg/injection, schedule: Q04DX003 (ip), vehicle: distilled water + Tween-80): 104 % of control
- T/C (dose: 100.0 mg/kg/injection, schedule: Q04DX002 (ip), vehicle: distilled water + Tween-80): 104 % of control and 111 % of control
- T/C (dose: 100.0 mg/kg/injection, schedule: Q04DX003 (ip), vehicle: distilled water + Tween-80): 111 % of control
- T/C (dose: 200.0 mg/kg/injection, schedule: Q04DX002 (ip), vehicle: distilled water + Tween-80): 118 % of control
- T/C (dose: 200.0 mg/kg/injection, schedule: Q04DX003 (ip), vehicle: distilled water + Tween-80): 115 % of control
- T/C (dose: 800.0 mg/kg/injection, schedule: Q04DX002 (ip), vehicle: distilled water + Tween-80): 155 % of control

SMILES: O=C1NC(=S)N/C1=C/c1ccc2c(c1)CCC2
- T/C (dose: 100.0 mg/kg/injection, schedule: Q01DX001 (ip), vehicle: saline with Tween-80): 100 % of control
- T/C (dose: 200.0 mg/kg/injection, schedule: Q01DX001 (ip), vehicle: saline with Tween-80): 100 % of control
- T/C (dose: 400.0 mg/kg/injection, schedule: Q01DX001 (ip), vehicle: saline with Tween-80): 95 % of control

SMILES: N#CC(C#N)(c1ccccc1)N1CCOCC1
- T/C (dose: 25.0 mg/kg/injection, schedule: Q04DX003 (ip), vehicle: saline): 109 % of control
- T/C (dose: 50.0 mg/kg/injection, schedule: Q04DX003 (ip), vehicle: saline): 100 % of control
- T/C (dose: 100.0 mg/kg/injection, schedule: Q04DX003 (ip), vehicle: saline with Tween-80): 100 % of control
- T/C (dose: 100.0 mg/kg/injection, schedule: Q04DX003 (ip), vehicle: saline): 104 % of control
- T/C (dose: 200.0 mg/kg/injection, schedule: Q04DX003 (ip), vehicle: saline with Tween-80): 96 % of control

SMILES: NC(=O)C1OC(n2cnc3c(N)ncnc32)C(O)C1O (stereo unspecified)
- T/C (dose: 1.56 mg/kg/injection, schedule: Q01DX005 (ip), vehicle: saline with Tween-80): 100 % of control and 104 % of control
- T/C (dose: 3.13 mg/kg/injection, schedule: Q01DX005 (ip), vehicle: saline with Tween-80): 105 % of control and 114 % of control
- T/C (dose: 6.25 mg/kg/injection, schedule: Q01DX005 (ip), vehicle: saline with Tween-80): 109 % of control and 115 % of control and 121 % of control

SMILES: O=C1NC2(CCN(Cc3ccccc3)CC2)Nc2ccccc21
- T/C (dose: 50.0 mg/kg/injection, schedule: Q01DX005 (ip), vehicle: Klucel (hydroxypropylcellulose) (HPC)): 99 % of control
- T/C (dose: 100.0 mg/kg/injection, schedule: Q01DX005 (ip), vehicle: Klucel (hydroxypropylcellulose) (HPC)): 99 % of control
- T/C (dose: 200.0 mg/kg/injection, schedule: Q01DX005 (ip), vehicle: Klucel (hydroxypropylcellulose) (HPC)): 97 % of control

SMILES: Cc1ccc(N)c(C(O)(C(F)(F)F)C(F)(F)F)c1
- T/C [14]: 99 % of control
- T/C [15]: 101 % of control

SMILES: CS(=O)(=O)Nc1cc(C(O)CNC2CC2)ccc1O (stereo unspecified)
- T/C (dose: 0.37 mg/kg/injection, schedule: Q01DX001 (ip), vehicle: saline): 96 % of control
- T/C (dose: 0.75 mg/kg/injection, schedule: Q01DX001 (ip), vehicle: saline): 98 % of control
- T/C (dose: 1.5 mg/kg/injection, schedule: Q01DX001 (ip), vehicle: saline): 100 % of control and 95 % of control

SMILES: C=C1C(=O)OC2CCCC(O)C12 (stereo unspecified)
- T/C (dose: 50.0 mg/kg/injection, schedule: Q04DX003 (ip), vehicle: Klucel (hydroxypropylcellulose) (HPC)): 106 % of control and 96 % of control
- T/C (dose: 100.0 mg/kg/injection, schedule: Q04DX003 (ip), vehicle: Klucel (hydroxypropylcellulose) (HPC)): 104 % of control
- T/C (dose: 200.0 mg/kg/injection, schedule: Q04DX003 (ip), vehicle: Klucel (hydroxypropylcellulose) (HPC)): 115 % of control

SMILES: [N-]=[N+]=Nc1cc(Cl)nnc1-c1ccccc1
- T/C (dose: 15.0 mg/kg/injection, schedule: Q01DX005 (ip), vehicle: Klucel (hydroxypropylcellulose) (HPC)): 107 % of control
- T/C [13]: 105 % of control
- T/C [8]: 100 % of control
